Results published in patent publication US7022719B2, “Preventing and reversing the formation of advance glycosylation endproducts” (Alteon, Inc., priority 1995, dated 2006).
Read-outs that look alike come from different tables or passages of the source.

Experiments:
[1] = test system: AGE-BSA crosslinked to collagen; experiment: Cross-link Breaking Assay (sandwich enzyme immunoassay); type: biochemical
Method: The present invention also involves a novel sandwich enzyme immunoassay used to ascertain the ability of test compounds to “break” or reverse already formed advanced glycosylation endproducts by detecting the breaking of AGE (Advanced glycosylation endproduct) moieties from AGE-crosslinked protein. This assay comprises: • a) incubation of AGE-modified bovine serum albumin (AGE BSA) on collagen-coated wells of microtiter plates for a period of 2–6 hours' at a temperature of 37° C.; • b) washing of the wells with PBS-Tween; • c) application of the test compounds to the washed wells of step b; • d) incubation of the test compounds applied to the washed wells for an additional 12–24 hours at a temperature of about 37° C.; and • e) detection of the AGE-breaking using an antibody raised against AGE-ribonuclease or cross-link breaking with an antibody against BSA.
In order to ascertain the ability of the compounds of the instant invention to “break” or reverse already formed advanced glycosylation endproducts, a novel sandwich enzyme immunoassay was developed which detects breaking of AGE (Advanced glycosylation endproduct) moieties from AGE-crosslinked protein. The assay utilizes collagen-coated 96 well microtiter plates that are obtained commercially. […] Following an incubation period of 16 hours (37° C.) cross-link-breaking is detected using an antibody raised against AGE-ribonuclease or with an antibody against BSA. […] Details of the assay are as follows:
Methods Preparation of Solutions and Buffers • 1. AGE-BSA stock solutions were prepared as follows. Sodium phosphate buffer (0.4 M) was prepared by dissolving 6 grams of monobasic sodium phosphate in 100 ml of distilled water, 7 grams of dibasic sodium phosphate (0.4 M) in 100 ml of distilled water and adjusting the pH of the dibasic solution to 7.4 with the monobasic solution. Sodium azide (0.02 grams) was added per 100 ml volume to inhibit bacterial growth. The BSA solution was prepared as follows: 400 mg of Type V BSA (bovine serum albumin) was added for each ml of sodium phosphate buffer (above). A 400 mM glucose solution was prepared by dissolving 7.2 grams of dextrose in 100 ml of sodium phosphate buffer (above). The BSA and glucose solutions were mixed 1:1 and incubated at 37° C. for 12 weeks. The pH of the incubation mixture was monitored weekly and adjusted to pH 7.4 if necessary. After 12 weeks, the AGE-BSA solution was dialyzed against PBS for 48 hours with four buffer changes, each at a 1:500 ratio of solution to dialysis buffer. Protein concentration was determined by the micro-Lowry method. The AGE-BSA stock solution was aliquoted and stored at −20° C. […] Working solutions for crosslinking and breaking studies were prepared as follows. Test compounds were dissolved in PBS and the pH was adjusted to pH 7.4 if necessary. AGE-BSA stock solution was diluted in PBS to measure maximum crosslinking and in the inhibitor solution for testing inhibitory activity of compounds. The concentration of AGE-BSA necessary to achieve the optimum sensitivity was determined by initial titration of each lot of AGE-BSA. • 3. Wash buffer (“PBS-Tween”) was, prepared as follows. PBS was prepared by dissolving the following salts in one liter of distilled water: NaCl, 8 grams; KC1, 0.2 gram, KH2PO4. […] Tween-20 was added to a final concentration of 0.05% (vol/vol). • 4. Substrates for detection of secondary antibody binding were prepared by diluting the HRP substrate buffer 1:10 in distilled water and mixing with ABTS chromogen 1:50 just prior to use. Assay Procedures • 1. Biocoat plates were blocked with 300 μl of “Superbloc”. Plates were blocked for one hour at room temperature and were washed with PBS-Tween three times with the Dynatech platewasher before addition of test reagents. • 2. Each experiment was set up in the following manner. The first three wells of the Biocoat plate were used for the reagent blank.

[2] = test system: cross-linking of glycated bovine serum albumin (AGE-BSA) to rat tail tendon collagen; experiment: Cross-linking Inhibition Assay; conditions: for IC50: inhibition of AGE-BSA cross-linking to collagen-coated plate
Method: The following method was used to evaluate the ability of the compounds of the present invention to inhibit the cross-linking of glycated bovine serum albumin (AGE-BSA) to the rat tail tendon collagen-coated 96-well plate.
The blocking solution was removed from the wells by, washing the plate twice with PBS-'Tween 20 solution (0.05% Tween 20) using a NUNq-multiprobe or Dynatech ELISA-plate washer. Cross-linking of AGE-BSA (1 to 10 mg per well depending on the batch of AGE-BSA) to rat tail tendon collagen coated plate was performed with and without the testing ‘compound dissolved in PBS buffer at pH 7.4 at the desired concentrations by the, addition of 50 μl each of the AGE-BSA diluted in PBS or in the solution of test compound at 37° C. for 4 hours. Unbrowned BSA in PBS buffer with or without testing compound were added to the separate wells as the blanks. The un-cross-linked AGE-BSA was then removed by washing the wells three times with PBS-Tween buffer. The amount of AGE-BSA cross-linked to the tail tendon collagen-coated plate was then quantitated using a polyclonal antibody raised against AGE-RNase. After a one-hour incubation period, AGE antibody was removed by washing 4 times with PBS-Tween.
The bound AGE antibody was then detected with the addition of horseradish peroxidase-conjugated secondary antibody—goat anti-rabbit immunoglobulin and incubation for 30 minutes. […] The reaction was allowed for an additional 15 minutes and the absorbance was read at 410 nm in a Dynatech plate reader.

[3] = detection with anti-AGE antibody, read-out: IC50 (mM) Anti-AGE
[4] = detection with anti-BSA antibody, read-out: IC50 (mM) Anti-BSA

Molecule: 3-(2-(3′-methoxyphenyl]-2-oxoethyl)-thiazolium bromide
- Breaking Anti-AGE [1]: 22%/44% (10)
- Breaking Anti-BSA [1]: 22%/44% (10)

Molecule: Cn1cc[n+](CC(=O)c2cc(C(C)(C)C)c(O)c(C(C)(C)C)c2)c1 [1-methyl-3-(2-(3′,5′-di-tert-butyl-4′-hydroxyphenyl)-2-oxoethyl]-imidazolium bromide]
- Breaking Anti-AGE ([1]; anti-AGE antibody, at 10 mM): 56%
- Breaking Anti-BSA ([1]; anti-BSA antibody, at 10 mM): 38%
- IC50 [2]: 4.5 mM

Molecule: Cc1cc(C)c(S(=O)(=O)[O-])c(C)c1.Nc1sc(-c2ccc3c(c2)OCCCO3)c[n+]1N [2,3-Diamino-5-(3′,4′-trimethylenedioxyphenyl) thiazolium mesitylene sulfonate]
- Breaking Anti-AGE ([1]; anti-AGE antibody, at 1 mM): 13%
- Breaking Anti-BSA ([1]; anti-BSA antibody, at 1 mM): 42%

Molecule: Nc1sc2ccccc2[n+]1N [2,3-diaminio-benzothiazolium mesitylenesulfonate]
- Breaking Anti-AGE ([1]; anti-AGE antibody, at 30 mM): 87%
- Breaking Anti-BSA ([1]; anti-BSA antibody, at 30 mM): 54%
- IC50 [2]: 0.0749 mM

Molecule: Nc1ccc2c(c1)sc(N)[n+]2CC(=O)c1ccc(Br)cc1.[Br-] [2,6-diamino-3 (2-(4′-bromophenyl)-2-oxoethyl] benzothiazolium bromide]
- Breaking Anti-AGE ([1]; anti-AGE antibody, at 10 mM): 27%
- Breaking Anti-BSA ([1]; anti-BSA antibody, at 10 mM): 44%

Molecule: Nc1ccc2c(c1)sc(N)[n+]2CC(=O)c1ccc(F)cc1.[Br-] [2,6-diamino-3 (2-(4′-fluorophenyl-2-oxoethyl]benzothiazolium bromide]
- Breaking Anti-AGE ([1]; anti-AGE antibody, at 10 mM): 24%
- Breaking Anti-BSA ([1]; anti-BSA antibody, at 10 mM): 40%

Molecule: COc1ccc(C(=O)C[n+]2c(N)sc3cc(N)ccc32)cc1.[Br-] [2,6-diamino-3 (2-(4′-methoxyphenyl)-2-oxoethyl]benzothiazolium bromide]
- Breaking Anti-AGE ([1]; anti-AGE antibody, at 10 mM): 29%
- Breaking Anti-BSA ([1]; anti-BSA antibody, at 10 mM): 35%

Molecule: Cc1c(CCO)sc[n+]1CC(=O)c1ccc2c(c1)OCCO2.[Br-] [3 (2-(1′,4′-benzodioxan-6-yl)-2-oxoethyl]-4-methyl-5-(2′-hydroxyethyl)-thiazolium bromide]
- Breaking Anti-AGE ([1]; anti-AGE antibody, at 3 mM): 11%
- Breaking Anti-BSA ([1]; anti-BSA antibody, at 3 mM): 21%
- Relative Cross-link Inhibition (at 10 mM) [2]: 13%

Molecule: CCOC(=O)c1ccc(NC(=O)C[n+]2csc(CCO)c2C)cc1.[Br-] [3-(2-4′-carbethoxyanilino)-2-oxoethyl]-4-methyl-5-(2′-hydroxyethyl)-thiazolium bromide]
- Breaking Anti-AGE ([1]; anti-AGE antibody, at 10 mM): 48%
- Breaking Anti-BSA ([1]; anti-BSA antibody, at 10 mM): 57%
- Relative Cross-link Inhibition [2]: 8.8% (1 mm)

Molecule: CCN(CC)c1ccc(C(=O)C[n+]2csc(CCO)c2C)cc1 [3-(2-4′-diethylaminophenyl)-2-oxoethyl]-4-qj. methyl-5-(2′-hydroxyethyl)-thiazolinium bromide]
- IC50 [2]: 2.8 mM

Molecule: Cc1c(CCO)sc[n+]1CC(=O)Nc1c(C(C)C)cccc1C(C)C.[Br-] [3-(2-(2′,6′-Diisopropylanilino)-2-oxoethyl]-4-methyl-5-(2′-hydroxyethyl)-thiazolium bromide]
- Breaking Anti-AGE ([1]; anti-AGE antibody, at 10 mM): 31%
- Breaking Anti-BSA ([1]; anti-BSA antibody, at 10 mM): 48%
- Relative Cross-link Inhibition (at 10 mM) [2]: 19%

Molecule: O=C(C[n+]1ccsc1)c1ccc2c(c1)OCCCO2.[Br-] [3-(2-(3′,4′-trimethylenedioxyphenyl)-2-oxoethyl]-thiazolium bromide]
- Breaking Anti-AGE ([1]; anti-AGE antibody, at 10 mM): 17%
- Breaking Anti-BSA ([1]; anti-BSA antibody, at 10 mM): 18%

Molecule: Cc1sc[n+](CC(=O)c2cc(C(C)(C)C)c(O)c(C(C)(C)C)c2)c1C [3-(2-(3′,5′-di-tert-butyl-4′-hydroxypheny].)-2-oxoethyl]-4,5-dimethyl-thiazolium bromide]
- IC50 [2]: 0.16 mM

Molecule: C=Cc1sc[n+](CC(=O)c2cc(C(C)(C)C)c(O)c(C(C)(C)C)c2)c1C [3-(2-(3′,5′-tert-butyl-4′-hydroxyphenyl)-2-oxoethyl)-4-methyl-5-vinyl-thiazolium bromide]
- Breaking Anti-AGE ([1]; anti-AGE antibody, at 0.3 mM): 32%
- Breaking Anti-BSA ([1]; anti-BSA antibody, at 0.3 mM): 50%

Molecule: Cc1sc[n+](CC(=O)c2ccc(Br)cc2)c1C [3-(2-(4-bromophenyl]-2-oxoethyl)-4,5-dimethylthiazolium bromide]
- IC50 [2]: 2.92 mM

Molecule: O=C(C[n+]1ccsc1)c1ccc(Br)cc1.[Br-] [3-(2-(4^1-bromophenyl]-2-oxoethyl)-thiazolium bromide]
- Breaking Anti-AGE ([1]; anti-AGE antibody, at 30 mM): 76%
- Breaking Anti-BSA ([1]; anti-BSA antibody, at 30 mM): 25%

Molecule: CCCCCc1ccc(C(=O)C[n+]2csc(CCO)c2C)cc1.[Br-] [3-(2-(4′-n-pentylphenyl)-2-oxoethyl]-4-methyl-5-(2′-hydroxyethyl)-thiazolinium]
- Relative Cross-link Inhibition ([2]; 3 mM): 52% @ 3 mM
- IC50 [2]: 1.53 mM

Molecule: Cc1c(CCO)sc[n+]1CC(=O)c1ccc(Br)cc1 [3-(2-(41-bromophenyl]-2-oxoethyl)-4-methyl-5-(2-hydroxyethyl)thiazolium bromide]
- IC50 [2]: 2.95 mM

Molecule: Cc1c[n+](CC(N)=O)cs1 [3-(2-amino-2-oxoethyl)-5-methyl-thiazolium bromide]
- IC50 [2]: 0.0289 mM

Molecule: NC(=O)C[n+]1ccsc1 [3-(2-amino-2-oxoethyl)thiazolium bromide, 3-(2-amino-2-oxoethyl)-thiazolium bromide]
- IC50 [2]: 0.53 mM

Molecule: COC(=O)C[n+]1cscc1C.[Br-] [3-(2-methoxy-2-oxoethyl)-4-methylthiazolium bromide]
- Breaking Anti-AGE ([1]; anti-AGE antibody, at 30 mM): 54%
- Breaking Anti-BSA ([1]; anti-BSA antibody, at 30 mM): 51%

Molecule: CC(=O)C[n+]1ccsc1.[Cl-] [3-(2-methyl-2-oxoethyl) thiazolium chloride]
- Breaking Anti-AGE ([1]; anti-AGE antibody, concentration not given): 56%
- Breaking Anti-BSA ([1]; anti-BSA antibody, concentration not given): 93%
- IC50 [1, 3]: 0.83 mM
- IC50 [1, 4]: 0.75 mM

Molecule: Cc1c[n+](CC(=O)c2ccccc2)cs1 [3-(2-phenyl-2-oxoethyl)-5-methyl-thiazolium bromide]
- IC50 [2]: 12.6 mM

Molecule: Cc1c(CCO)sc[n+]1Cc1c(Cl)cccc1Cl.[Cl-] [3-(2′,6′-dichlorobenzyl)-4-methyl-5-(2′-15 hydroxyethyl)-thiazolium chloride]
- Breaking Anti-AGE ([1]; anti-AGE antibody, at 10 mM): 6%
- Breaking Anti-BSA ([1]; anti-BSA antibody, at 10 mM): 27%

Molecule: O=C(O)C[n+]1csc2ccccc21.[Br-] [3-(carboxymethyl)benzothiazolium bromide, 3-(carboxymethyl)-benzothiazolium bromide]
- Breaking Anti-AGE ([1]; anti-AGE antibody, at 30 mM): 63.7%
- Breaking Anti-BSA ([1]; anti-BSA antibody, at 30 mM): 17.9%

Molecule: Cc1csc[n+]1CC(=O)c1cc(C(C)(C)C)c(O)c(C(C)(C)C)c1.[Br-] [3-[2-(3′,5′-di-tert-butyl-4′-hydroxyphenyl)-2-oxoethyl]-4-methyl-thiazolium bromide]
- Breaking Anti-AGE ([1]; anti-AGE antibody, at 0.3 mM): 14%
- Breaking Anti-BSA ([1]; anti-BSA antibody, at 0.3 mM): 2%

Molecule: Cc1c(CCO)sc[n+]1Cc1ccccc1.[Cl-] [3-benzyl-5-(2-hydroxyethyl)-4-methyl thiazolium chloride]
- Breaking Anti-AGE ([1]; anti-AGE antibody, at 30 mM): 65%
- Breaking Anti-BSA ([1]; anti-BSA antibody, at 30 mM): 61%
- IC50 [1, 3]: 0.42 mM
- IC50 [1, 4]: 0.55 mM
